From patent publication US20030229025A1, “Intranasal administration of MC4-R agonists” (Chiron Corporation, priority 2002, published 2003)
Ends that are not written are not given here.

Experiments:
ob/ob mice [1] = test: Intranasal (IN) efficacy: food intake in fasted ob/ob mice; assay type: in vivo; settings: Mus musculus, inhaled or nasal, 4 hour, read-out: % Food Intake Reduction at 4 hour
Procedure: Subjects: ob/ob mice; approximately 10 weeks old males; body weight 50-60 grams.
The mice were divided into the following groups:
1) Mice received only vehicle. The vehicle was one of the following: water, 10 mM phosphate buffer, 5% captisol in 10 mM phosphate buffer (see Table 1 for details).
2) Mice received a compound of an embodiment of the present invention at a dosage of 1 mg/kg.
3) Mice received a compound of an embodiment of the present invention at a dosage of 3 mg/kg.
4) Mice received a compound of an embodiment of the present invention at a dosage of 6 mg/kg. n=6-8 animals per group
Note: For compound 1 and compound 2, the 1 mg/kg group was not included.
Animals were fasted overnight (˜16 hours), and an MC4-R agonist compound as described in Tables 1-3 was administered at 8:30 am next day. The administration volume was […]/50 grams of body weight. The animal was gently held by one hand, and the compound solution was delivered by the other hand using a pipette with fine tips. The rate of delivery was such that the full amount was given in not less than 60 seconds to ensure maximal absorption. Pre-weighed food was given to the animals immediately after dosing, and animals had free access to water throughout the study. Food weighing was performed at 1, 2, 3, 4, and 6 hours after dosing. On occasion, food weighing was also taken at the 8 hour or 24 hour time point. Animals were euthanized using carbon dioxide followed by cervical dislocation at the end of the experiment.
Mice were fasted overnight. At 8:30 am the next morning, they were dosed with 25 μl of vehicle or compound solution by intranasal delivery. The solution was delivered using a pipette with protein loading tips. The rate of delivery was such that the full amount was given in not less than 60 seconds. Mice were fed with pre-weighed food immediately after dosing, and had access to water the entire time. Food weight was measured at 1, 2, 3, 4, 6, and 8 hours following the dosing. Mice were euthanized at the end of the study using CO2 followed by cervical dislocation.

ob/ob mice [2] = test: as above; assay type: in vivo; settings: Mus musculus, inhaled or nasal, 4 hour, read-out: % Food Intake Reduction at 4 hour; remark: listed apart in the source
[3] = acute intranasal administration; ACTH4-10 1 mg, desacetyl-αMSH 1.68 mg (equimolar); cited from earlier work
[4] = human subjects, cited from earlier work; for body fat: intranasal administration

Row | Compound | inhibition in vivo at 3 mg/kg (ob/ob mice [1]) | inhibition in vivo at 6 mg/kg (ob/ob mice [1]) | inhibition in vivo at 1 mg/kg (ob/ob mice [1]) | inhibition in vivo at 0.5 mg/kg (ob/ob mice [2]) | processing negativity (PN) of the ERP over frontal and central cortical areas [3] | plasma leptin levels and insulin levels ([4]; after intranasal administration) | body fat [4]
1 | COc1ccc(CCNC(=O)c2ccc(N/C(=N/[C@H]3C[C@H]4C[C@@H]([C@@H]3C)C4(C)C)N3CCN[C@@H](C)C3)cc2)c(F)c1 [Compound 1] | 59% | 91.5% | – | – | – | – | –
2 | Cc1ccc(CCc2nc3ccc(N/C(=N\[C@H]4C[C@H]5C[C@@H]([C@@H]4C)C5(C)C)N4CCN[C@@H](C)C4)cc3[nH]2)c(C)c1 [Compound 2] | 23.7% | 1.7% | – | – | – | – | –
3 | COc1ccc(CCNC(=O)c2ccc(N/C(=N/[C@H]3C[C@H]4C[C@@H]([C@@H]3C)C4(C)C)N3C[C@@H](C)N[C@@H](C)C3)cc2)c(F)c1 [Compound 3] | 63.8% | 70.3% | -3% | – | – | – | –
4 | C[C@@H]1[C@@H](/N=C(\Nc2ccc3[nH]c(CCc4ccc(Cl)cc4Cl)nc3c2)N2CCN[C@@H](C)C2)C[C@H]2C[C@@H]1C2(C)C [Compound 5] | 53.1% | 67.3% | 10.4% | – | – | – | –
5 | C[C@@H]1[C@@H](/N=C(\Nc2ccc(NC(=O)CCc3ccc(Cl)cc3Cl)cc2)N2CCN[C@@H](C)C2)C[C@H]2C[C@@H]1C2(C)C [Compound 6] | 21.3% | 57.4% | -11.9% | – | – | – | –
6 | C[C@@H]1[C@@H](/N=C(/Nc2ccc(C(=O)OCCc3ccc(Cl)cc3Cl)cc2)N2C[C@@H](C)N[C@@H](C)C2)C[C@H]2C[C@@H]1C2(C)C [Compound 7] | 42.7% | 85.5% | 23.5% | – | – | – | –
7 | CCOC(=O)c1ccc(N/C(=N/[C@H]2C[C@H]3C[C@@H]([C@@H]2C)C3(C)C)N2C[C@@H](C)N[C@@H](C)C2)cc1 [Compound 8] | 60% | 84.1% | 37.8% | – | – | – | –
8 | COc1ccc(CCNC(=O)c2ccc(N/C(=N/[C@H]3C[C@H]4C[C@@H]([C@@H]3C)C4(C)C)N3C[C@H](C)N[C@@H](C)C3)nc2)c(F)c1 [Compound 9] | 70.2% | 69.6% | 35.2% | – | – | – | –
9 | COc1ccc(CCN2CCc3cc(N/C(=N/[C@H]4C[C@H]5C[C@@H]([C@@H]4C)C5(C)C)N4CCN[C@@H](C)C4)ccc3C2=O)c(F)c1 [Compound 10] | 39.7% | – | 14.2% | – | – | – | –
10 | C[C@@H]1[C@@H](/N=C(/Nc2ccc(C(=O)N[C@H](CO)Cc3ccc(Cl)cc3Cl)cn2)N2C[C@@H](C)N[C@@H](C)C2)C[C@H]2C[C@@H]1C2(C)C [Compound 11] | 82% | – | 27.7% | -3.8% | – | – | –
11 | COc1ccc(CCn2cnc3cc(N/C(=N/[C@H]4C[C@H]5C[C@@H]([C@@H]4C)C5(C)C)N4CCN[C@@H](C)C4)ccc3c2=O)c(F)c1 [Compound 12] | 47.2% | – | 22.6% | 6% | – | – | –
12 | MSH/ACTH4-10: melanocyte stimulating hormone/adrenocorticotropin4-10; behaviorally active fragment of ACTH (MEHFRWG; Corticotropin; UniProt P01189 141-147, looked up, fragment) | – | – | – | – | reduced the processing negativity | decreased | reduced body fat
13 | desacetyl-αMSH: melanocortin peptide intranasally administered in the cited studies of Fehm et al. and Smolnik et al. (SYSMEHFRWGKPV; ends and bridges not checked; UniProt P01189 138-150, looked up) | – | – | – | – | ineffective | – | nonsignificant
